The first experiment addresses T1, human P2X3 receptor (Homo sapiens, UniProt P56373).
T1 construct: expressed in transfected cells; host or cells: CHO-K1
T1 sequence (P56373 1-397): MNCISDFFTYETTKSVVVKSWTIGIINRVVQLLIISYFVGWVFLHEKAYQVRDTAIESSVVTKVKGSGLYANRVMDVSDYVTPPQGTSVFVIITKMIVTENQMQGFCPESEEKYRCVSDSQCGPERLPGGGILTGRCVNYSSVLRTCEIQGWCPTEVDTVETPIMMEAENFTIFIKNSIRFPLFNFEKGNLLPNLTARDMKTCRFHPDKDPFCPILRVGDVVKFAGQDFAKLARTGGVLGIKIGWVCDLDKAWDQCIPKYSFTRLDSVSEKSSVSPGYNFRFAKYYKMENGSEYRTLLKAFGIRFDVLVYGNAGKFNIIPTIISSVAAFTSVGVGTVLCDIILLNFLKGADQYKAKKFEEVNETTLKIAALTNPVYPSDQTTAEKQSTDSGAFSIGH
Kind of experiment: Calcium luminescence (photoprotein) assay in CHO-K1 cells co-expressing human P2X3 receptor, α,β-Met-ATP stimulation, FLEXSTATION readout. Type of experiment: cell-based. As to conditions: Table 6; human P2X3 receptor antagonist activity, CHO-K1 cells, α,β-Met-ATP; read-out: h-P2X3 IC50. The protocol:
The assay for the human purinergic P2X3 receptor has been adapted to the internal screening instrumentation using the FLEXSTATION as reader and a photoprotein as luminescent readout. The assay consists of CHO-K1 cells recombinantly co-expressing the human P2rx3 receptor and a Ca^2+ sensitive photoprotein. Cells are maintained in DMEM F-12 (1:1) mixture (LONZA cat. no BE04-687F/U1) supplemented with 9 mL of 100 mM Sodium Pyruvate (LONZA cat. no BE13-115E), 29 mL of 7.5% Sodium Bicarbonate (LONZA cat. no: BE17-613E), 5.5 mL of 1 M Hepes (LONZA cat. no BE17-737E), 5 mL of 100× Penicillin/Streptomycin (LONZA cat. no DE17-602E) and 50 mL of Fetal Bovine Serum (Sigma cat. no F7524), 1 mg/mL G418 (Sigma cat. no G8168) and 5 µg/ml puromycin (Sigma cat. no P9620). Standard propagation conditions consist of seeding in a P75 flask twice a week, recovering about 20×10^6 cells, corresponding to about 80% confluency. Cells were seeded into black-walled clear bottom 96 well plates at a density of 40000 cells/well in a Tyrode's buffer (Standard Tyrode's buffer: in house solution, 130 mM NaCl, 5 mM KCl, 2 mM CaCl2, 5 mM NaHCO3, 1 mM MgCl2, 20 mM HEPES, pH 7.4). After 24 h the culture medium was replaced with 200 μL/well of coelenterazine in Tyrode's buffer (Coelenterazine: from BIOSYNTH (cat. no C-7001). 10 mM stock solution was prepared in DMSO and glutathione and stored at −20° C.). The plates were incubated for 4 hours at 37° C., and injected with 10 μL/well of test compounds at 25× concentration in Tyrode's buffer. After 4 minutes a second injection of 50 μL/well of 5× α,β-Met-ATP in Tyrode's buffer (α,β-Met-ATP: from Tocris (cat. no 3209), was dissolved at 100 mM in water and stored in aliquots at −20° C.) was performed and the signal of the emitted luminescence was recorded by FLEXSTATION III (Molecular Devices).
The inhibition curves of the tested compounds at cloned P2X3 receptor were determined by nonlinear regression analysis using software Prism 4.0 (Graphpad, San Diego, Calif.). The IC50 values and pseudo-Hill slope coefficients were estimated by the program.
What is called IC50 is the concentration needed to halve the response being measured. As for `COc1ccc(CN2C(=O)N3CC(C(C)C)N=C3c3ncc(N4CCC(CO)CC4)cc32)cc1` (stereo not shown) [Example 20], the IC50 came to 1140 nM.
The same measure, in the same setting: under `COc1cc(CN2C(=O)N3CC(C(C)C)N=C3c3ncc(N4CCOCC4)cc32)cc(OC)c1` (stereo not shown) [Example 4, 6-(3,5-dimethoxybenzyl)-8-(morpholin-4-yl)-2-(propan-2-yl)-2,6-dihydroimidazo[1,2-c]pyrido[2,3-e]pyrimidin-5(3H)-one] stands 178 nM; under `COc1ccc(CN2C(=O)N3CC(c4ccccc4)N=C3c3ncc(N4CCOCC4)cc32)cc1` (stereo not shown) [Example 28, 6-(4-methoxybenzyl)-8-(morpholin-4-yl)-2-phenyl-2,6-dihydroimidazo[1,2-c]pyrido[2,3-e]pyrimidin-5(3H)-one], 375 nM; under `CC(C)C1CN2C(=O)N(Cc3ccc(Cl)cc3)c3cc(N4CC5(COC5)C4)cnc3C2=N1` (stereo not shown) [Example 15, 6-(4-chlorobenzyl)-8-(2-oxa-6-azaspiro[3.3]heptan-6-yl)-2-(propan-2-y1)-2,6-dihydroimidazo[1,2-c]pyrido[2,3-e]pyrimidin-5(3H)-one], 1430 nM.
For `COc1cc(CN2C(=O)N3CC(CC(C)C)N=C3c3ncc(N4CCOCC4)cc32)cc(OC)c1` (stereo not shown) [Example 22, 6-(3,5-dimethoxybenzyl)-2-(2-methylpropyl)-8-(morpholin-4-yl)-2,6-dihydroimidazo[1,2-c]pyrido[2,3-e]pyrimidin-5(3H)-one], the IC50 was 143 nM.
Still for that read-out and setting: under `CCC1CN=C2c3ncc(N4CCOCC4)cc3N(Cc3ccc(OC)cc3)C(=O)N21` (stereo not shown) [Example 53, 3-ethyl-6-(4-methoxybenzyl)-8-(morpholin-4-y1)-2,6-dihydroimidazo[1,2-c]pyrido[2,3-e]pyrimidin-5(3H)-one] stands 2070 nM; under `COCC1CN2C(=O)N(Cc3ccc(Cl)cc3)c3cc(N4CCOCC4)cnc3C2=N1` (stereo not shown) [Example 11, 6-(4-chlorobenzyl)-2-(methoxymethyl)-8-(morpholin-4-y1)-2,6-dihydroimidazo[1,2-c]pyrido[2,3-e]pyrimidin-5(3H)-one], 358 nM.
Still for that read-out and setting: under `CCC1CN=C2c3ncc(N4CCOCC4)cc3N(Cc3cc(OC)cc(OC)c3)C(=O)N21` (stereo not shown) [Example 6, 6-(3,5-dimethoxybenzyl)-3-ethyl-8-(morpholin-4-yl)-2,6-dihydroimidazo[1,2-c]pyrido[2,3-e]pyrimidin-5(3H)-one] stands 504 nM.
Same read-out and setting: under `CCC1CN2C(=O)N(Cc3cc(OC)cc(OC)c3)c3cc(N4CCOCC4)cnc3C2=N1` (stereo not shown) [Example 5, 6-(3,5-dimethoxybenzyl)-2-ethyl-8-(morpholin-4-yl)-2,6-dihydroimidazo[1,2-c]pyrido[2,3-e]pyrimidin-5(3H)-one] stands 278 nM.
For `COCC1CN(c2cnc3c(c2)N(Cc2ccc(Cl)cc2)C(=O)N2CC(C(C)C)N=C32)C1` (stereo not shown) [Example 17, 6-(4-chlorobenzyl)-8-[3-(methoxymethyl)azetidin-1-yl]-2-(propan-2-y1)-2,6-dihydroimidazo[1,2-c]pyrido[2,3-e]pyrimidin-5(3H)-one], the IC50 was 690 nM.

Staying with this experiment, now noted: Table 7; human P2X3 receptor antagonist activity, CHO-K1 cells, α,β-Met-ATP; read-out: h-P2X3 IC50.
For `O=c1n(Cc2ccc(Cl)cc2)c2cc(N3CCOCC3)cnc2c2nnc(Cc3cccnc3O)n12` [Example 105, 6-(4-chlorobenzyl)-3-[(2-hydroxypyridin-3-yl)methyl]-8-(morpholin-4-yl)pyrido[2,3-e][1,2,4]triazolo[4,3-c]pyrimidin-5(6H)-one], the IC50 worked out at 655 nM.
For the compound `Cc1ccc(Cn2c(=O)n3cc(CC(C)C)nc3c3ncccc32)cc1` [Example 72, 6-(4-methylbenzyl)-2-(2-methylpropyl)imidazo[1,2-c]pyrido[2,3-e]pyrimidin-5(6H)-one], the IC50 is 1390 nM.
Same read-out and setting: next, `Cc1c(C(C)C)nc2c3ncc(N4CCOCC4)cc3n(Cc3ccc(Cl)cc3)c(=O)n12` [Example 90]: 332 nM; `CC(C)NC(=O)Cc1nnc2c3ncc(N4CCOCC4)cc3n(Cc3ccc(Cl)cc3)c(=O)n12` [Example 103, 2-[6-(4-chlorobenzyl)-8-(morpholin-4-y1)-5-oxo-5,6-dihydropyrido[2,3-e][1,2,4]triazolo[4,3-c]pyrimidin-3-yl]-n-(propan-2-yl)acetamide]: 811 nM; `COc1cc(Cn2c(=O)n3c(C)c(C(C)C)nc3c3ncc(NCC4COC4)cc32)cc(OC)c1` [Example 83, 6-(3,5-dimethoxybenzyl)-3-methyl-8-[(oxetan-3-ylmethyl)amino]-2-(propan-2-yl)imidazo[1,2-c]pyrido[2,3-e]pyrimidin-5(6H)-one]: 292 nM.
Regarding `Cc1c(C(C)C)nc2c3ncc(C(=O)N4CCC(O)CC4)cc3n(Cc3ccc(Cl)cc3)c(=O)n12` [Example 94, 6-(4-chlorobenzyl)-8-[(4-hydroxypiperidin-1-yl)carbonyl]-3-methyl-2-(propan-2-yl)imidazo[1,2-c]pyrido[2,3-e]pyrimidin-5(6H)-one], the IC50 worked out at 8260 nM.
Same read-out and setting: under `COc1ccc(Cn2c(=O)n3cc(CC(C)C)nc3c3ncc(N4CCOCC4)cc32)cc1` [Example 78, 6-(4-methoxybenzyl)-2-(2-methylpropyl)-8-(morpholin-4-yl)imidazo[1,2-c]pyrido[2,3-e]pyrimidin-5(6H)-one] stands 631 nM.

Still in this experiment, the particulars now being: Table 8; human P2X3 receptor antagonist activity, CHO-K1 cells, α,β-Met-ATP; read-out: h-P2X3 IC50.
As for `CC(C)(C)OC(=O)NC1CCN(c2cnc3c(c2)c(Cc2ccc(Cl)cc2)nn2c(C(C)(C)C)nnc32)CC1` [Example 138, tert-butyl n-[1-[5-tert-butyl-8-(4-chlorobenzyl)-3,4,6,7,13-pentazatricyclo[7.4.0.02,6]trideca-1(9),2,4,7,10,12-hexaen-11-yl]-4-piperidyl]carbamate], the IC50 was determined as 3340 nM.
Still for that read-out and setting: under `Cc1ccc(Cc2nn3c(CC4CCCCC4)nnc3c3ncc(N4CCOCC4)cc23)cc1` [Example 137, 3-(cyclohexylmethyl)-6-(4-methylbenzyl)-8-(morpholin-4-yl)pyrido[2,3-d][1,2,4]triazolo[4,3-b]pyridazine] stands 234 nM.
On the same count and under the same terms, under `COc1ccc(Cc2nn3c(C(C)C)nnc3c3ncc(N4CCOCC4)cc23)cc1` [Example 122, 6-(4-methoxybenzyl)-8-(morpholin-4-yl)-3-(propan-2-yl)pyrido[2,3-d][1,2,4]triazolo[4,3-b]pyridazine] stands 1810 nM; under `CC(C)c1nnc2c3ncc(N4CCOCC4)cc3c(Cc3ccc(Cl)cc3)nn12` [Example 127, 6-(4-chlorobenzyl)-8-(morpholin-4-yl)-3-(propan-2-yl)pyrido[2,3-d][1,2,4]triazolo[4,3-b]pyridazine], 147 nM.
In the case of `CC(C)Cc1nnc2c3ncc(N4CCOCC4)cc3c(Cc3ccc(Cl)cc3)nn12` [Example 133, 6-(4-chlorobenzyl)-3-(2-methylpropyl)-8-(morpholin-4-yl)pyrido[2,3-d][1,2,4]triazolo[4,3-b]pyridazine], the IC50 was determined as 217 nM.
Same read-out and setting: next, `Cc1ccc(Cc2nn3c(CC4CCOCC4)nnc3c3ncc(N4CCOCC4)cc23)cc1` [Example 117, 6-(4-methylbenzyl)-8-(morpholin-4-yl)-3-(tetrahydro-2H-pyran-4-ylmethyl)pyrido[2,3-d][1,2,4]triazolo[4,3-b]pyridazine]: 197 nM.

The experiment is the same for the next values; noted with them: Table 9; human P2X3 receptor antagonist activity, CHO-K1 cells, α,β-Met-ATP; read-out: h-P2X3 IC50.
In the case of `CC(C)c1nnc2c3ncc(N4CCC(O)CC4)cc3n(Cc3ccc(Cl)cc3)c(=O)n12` [Example 171, 6-(4-chlorobenzyl)-8-(4-hydroxypiperidin-1-yl)-3-(propan-2-yl)pyrido[2,3-e][1,2,4]triazolo[4,3-c]pyrimidin-5(6H)-one], the IC50 worked out at 700 nM.
Same read-out and setting: under `CCC1CCN2C(=O)N(Cc3ccc(Cl)cc3)c3cc(N4CCOCC4)cnc3C2=N1` (stereo not shown) [Example 154, 5-(4-chlorobenzyl)-10-ethyl-3-(morpholin-4-yl)-5,8,9,10-tetrahydro-6H-pyrido[2,3-e]pyrimido[1,2-c]pyrimidin-6-one] stands 1050 nM.

Values taken from patent US11999732B2, “P2X3 receptor antagonists” (RECORDATI INDUSTRIA CHIMICA E FARMACEUTICA SPA, priority 2018, dated 2024).
